Experimental data taken from patent US11076596B2, “Substituted trifluoromethyloxadiazoles for combating phytopathogenic fungi” (BASF SE, priority 2017, dated 2021).

Compound: CO/N=C1\CCCC1NC(=O)c1ccc(-c2noc(C(F)(F)F)n2)cc1 (stereo not shown) [Ex-1, N-[(2E)-2-methoxyiminocyclopentyl]-4-[5-(trifluoromethyl)-1,2,4-oxadiazol-3-yl]benzamide]
- melting point: 175 °C
